Results taken from patent US12195493B2, “Reversibly blocked nucleoside analogues and their use” (MGI Tech Co., Ltd., priority 2016, dated 2025).
Entries after “also recorded” stand apart in the source; their conditions may differ. Each block holds one compound with its values, some of them ahead of it.

Legend:
[1] = 3′-O-Cyanoethyl cleavage in solution or on Biochips; settings: added reagent in cleavage buffer, FIGS. 2 and 3
polymerase = experiment: Polymerase incorporation in sequencing by synthesis on nanoball arrays (FIG. 1); type: biochemical; settings: compared with unlabeled (cold) control 3′-O-azidomethyl-dTTP
Description: (§1) Allenyl-dTTP and cyanoethenyl-dTTP were incubated at room temperature for 24 hours, or 65° C. for 2 hours. Fresh mixes were also made the day of the experiment. Allenyl-dTTP or cyanoethenyl-dTTP were mixed with unlabeled AGC (AGC-Cold) and used as both the hot (labeled) and cold (unlabeled) chase. Nanoball arrays were imaged to obtain a control image. Then, the array was incubated with labeled mixes to check for incorporation on unblocked ends. […] Moreover, both allenyl-dTTP and cyanoethenyl-dTTP are stable at room temperature for 24 hours and 65° C. for 2 hours as indicated by their ability to efficiently incorporate into polymerization product and thereby block subsequent polymerization and incorporation of the hot chase label.

[2] = Stability after incubation, read out by incorporation and blocking of hot chase label; type: physicochemical
Description: as §1

[3] = Monitoring cleavage of 3′-O reversible blocker by LC-MS (Example 2); type: physicochemical
Description: Cleavage reactions were performed using 5 mg of compound 8 (3′-O-cyanoethyenyl-thymidine) in 0.25 mL of acetonitrile and 0.25 mL of buffer. Cleavage was monitored by LC-MS and the results are depicted in the table below.

[4] = Cleavage studies with a variety of nucleophiles at 50° C. (Example 6); type: physicochemical
Description: Cleavage studies were performed according to the scheme shown below using a variety of nucleophiles. The nucleophiles, concentration, pH, and solvent are indicated for each study. The nucleoside analogue containing a 3′-O-blocking group and a linking group were treated with a nucleophile at 50° C. in solvent to form analogues having both the blocking group and linking group cleaved 13 and only the linking group cleaved 15. SM indicates starting material.
Table of Results (Experimental Conditions: T=50° C.; 1.0 mg 12/mL solvent).

Structure (SMILES): F [F^−]
- effect on cleavage efficiency [1]: improved effect

Structure (SMILES): C=C=CO[C@H]1C[C@H](n2cc(C)c(=O)[nH]c2=O)O[C@@H]1COP(=O)(O)OP(=O)(O)OP(=O)(O)O [allenyl-dTTP, 3′-O-allenyl-thymidine triphosphate]
- effectiveness as polymerase substrate for sequencing by synthesis (polymerase): as effective a polymerase substrate for sequencing by synthesis as the unlabeled control 3′-O-azidomethyl-dTTP; also recorded: as effective polymerase substrates for sequencing as the cold control, 3′-azidomethyl-dTTP
- stability ([2]; 65° C. for 2 hours): stable
- stability ([2]; room temperature for 24 hours): stable

Structure (SMILES): Cc1cn([C@H]2C[C@H](OC=CC#N)[C@@H](COP(=O)(O)OP(=O)(O)OP(=O)(O)O)O2)c(=O)[nH]c1=O [cyanoethenyl-dTTP, 3′-O-cyanoethenyl-thymidine triphosphate]
- effectiveness as polymerase substrate for sequencing by synthesis (polymerase): as effective a polymerase substrate for sequencing by synthesis as the unlabeled control 3′-O-azidomethyl-dTTP
- effectiveness as polymerase substrate for sequencing by synthesis (polymerase; listed as cyanoethyl-dTTP): as effective polymerase substrates for sequencing as the cold control, 3′-azidomethyl-dTTP
- stability ([2]; 65° C. for 2 hours): stable
- stability ([2]; room temperature for 24 hours): stable

Further lines, with some results ahead:

- effect on cleavage efficiency [1]: improved effect
Structure (SMILES): O=P([O-])([O-])OP(=O)([O-])[O-].[K+].[K+].[K+].[K+] [K4PPi]

- time to complete cleavage ([3]; 10 equivalents of dimethylamine in acetonitrile/0.1 M TEAB): 20 to 30 min
- time to complete cleavage ([3]; 40 equivalents of dimethylamine in acetonitrile/0.1 M TEAB): ≤ 10 min
- time to complete cleavage ([3]; 40 equivalents of dimethylamine in acetonitrile/0.5 M phosphate buffer): 10 to 20 min
- time to complete cleavage ([3]; 40 equivalents of dimethylamine in acetonitrile/1 M Tris buffer): ≤ 10 min
Structure (SMILES): Cc1cn([C@H]2C[C@H](OC=CC#N)[C@@H](CO)O2)c(=O)[nH]c1=O [compound 8, 3′-O-cyanoethenyl-thymidine]

- amount of the product obtained (SM = starting material) ([4]; Entry 24, Cleland's reagent (dithiothreitol) 1.0 M, pH 9.0, Water + 10% MeCN, t = 1 h): 5% SM + 95% of unidentified species
- amount of the product obtained (SM = starting material) ([4]; Entry 24, Cleland's reagent (dithiothreitol) 1.0 M, pH 9.0, Water + 10% MeCN, t = 18 h): No SM + unidentified species
- amount of the product obtained (SM = starting material) ([4]; Entry 25, 4-Methoxy-N-methylaniline 1.0 M, pH 8.3, Water/MeCN (1:2), t = 1 h): 95% SM + 5% of unidentified species
- amount of the product obtained (SM = starting material) ([4]; Entry 25, 4-Methoxy-N-methylaniline 1.0 M, pH 8.3, Water/MeCN (1:2), t = 18 h): 95% SM + 5% of unidentified species
Structure (SMILES): N#C/C=C/O[C@H]1C[C@H](n2cc(C#CCNC(=O)C(F)(F)F)c(=O)[nH]c2=O)O[C@@H]1CO [compound 12]
- amount of the product obtained (SM = starting material) ([4]; Entry 22, Morpholine 1.0 M, pH 9.0, Water + 10% MeCN, t = 1 h): 25% SM + 40% of (15) + 35% of unidentified species
- amount of the product obtained (SM = starting material) ([4]; Entry 22, Morpholine 1.0 M, pH 9.0, Water + 10% MeCN, t = 18 h): No SM 40% of (15) + 60% of unidentified species
- amount of the product obtained (SM = starting material) ([4]; Entry 26, N,N′-Dimethylene diamine 1.0 M, pH 9.0, Water + 10% MeCN, t = 1 h): 5% SM + 20% of (15) + 75% of unidentified species
- amount of the product obtained (SM = starting material) ([4]; Entry 26, N,N′-Dimethylene diamine 1.0 M, pH 9.0, Water + 10% MeCN, t = 18 h): No SM + 20% of (15) + 80% of unidentified species
- amount of the product obtained (SM = starting material) ([4]; Entry 27, N-Methylhydroxyl amine hydrochloride 1.0 M, pH 9.0, Water + 10% MeCN, t = 1 h): 16% Product (13) + 10% of (15) + 74% of unidentified species
- amount of the product obtained (SM = starting material) ([4]; Entry 27, N-Methylhydroxyl amine hydrochloride 1.0 M, pH 9.0, Water + 10% MeCN, t = 18 h): 10% of (15) + 90% of unidentified species
- amount of the product obtained (SM = starting material) ([4]; Entry 28, N,N′-dimethyl-cis-cyclohexane-1,2-diamine 1.0 M, pH 9.0, Water/MeCN (2:1), t = 1 h): 60% SM + 35% of (15) + 5% of unidentified species
- amount of the product obtained (SM = starting material) ([4]; Entry 28, N,N′-dimethyl-cis-cyclohexane-1,2-diamine 1.0 M, pH 9.0, Water/MeCN (2:1), t = 18 h): 30% SM + 50% of (15) + 20% of unidentified species
